Experimental data published in the Biogen ADME set (Fang et al. 2023).
Converted amounts (≈) assume the structure as drawn.

Conditions: for aqueous solubility: pH 6.8

SMILES	MDR1-MDCK efflux ratio	intrinsic clearance, human liver microsomes	intrinsic clearance, rat liver microsomes	aqueous solubility	fraction unbound, human plasma	fraction unbound, rat plasma
CC(C)c1nnc(CN2CCN(c3nccs3)CC2)o1	0.971	≤ 4.74 mL/min/kg	122 mL/min/kg	52.1 µg/mL (≈ 177 µM)	–	–
CCc1noc(-c2ccc(C)c(N)c2)n1	–	209 mL/min/kg	196 mL/min/kg	–	–	–
Cc1cc(C(=O)NC2CCN(c3ncnc4sc(C)c(C)c34)CC2)on1	–	43.3 mL/min/kg	368 mL/min/kg	2.49 µg/mL (≈ 6.7 µM)	–	–
Cc1cc(C)nc(NS(=O)(=O)c2ccc(NC(=O)/C=C/c3ccc([N+](=O)[O-])s3)cc2)n1	–	14 mL/min/kg	57.3 mL/min/kg	–	–	–
CCOc1ccc2[nH]c(C(=O)N3CC[C@@](O)(CC(C)C)[C@@H](Oc4ccc(F)cc4)C3)c(C)c2c1	6.74	109 mL/min/kg	943 mL/min/kg	–	–	–
CCC(=O)NCC[C@@H]1CCc2ccc3c(c21)CCO3	0.867	26.4 mL/min/kg	299 mL/min/kg	–	–	–
Cc1ccc(-c2nnc([C@H]3CCN(Cc4cc5ccccc5o4)C3)o2)cc1	0.679	49.2 mL/min/kg	663 mL/min/kg	15.9 µg/mL (≈ 44.2 µM)	–	–
COC(C)(C)CCNC(=O)CC1CC(C)(C)NC(C)(C)C1	12.9	≤ 4.74 mL/min/kg	41.1 mL/min/kg	–	–	–
CON(C)C(=O)c1cccc2c(C)c(C)[nH]c12	0.476	113 mL/min/kg	196 mL/min/kg	31.5 µg/mL (≈ 136 µM)	–	–
CC(C)C(=O)Nc1ccc2cnn(C(C)C)c2c1	1.42	14 mL/min/kg	55.8 mL/min/kg	23 µg/mL (≈ 93.7 µM)	–	–
Cc1noc(Cc2ccc(C)c(O)c2)n1	–	10.7 mL/min/kg	52.2 mL/min/kg	–	–	–
C[C@@H](Oc1cc(-c2cnn(C3CCNCC3)c2)cnc1N)c1c(Cl)ccc(F)c1Cl	–	23.2 mL/min/kg	106 mL/min/kg	32.5 µg/mL (≈ 72.2 µM)	–	–
CSCc1c(C(=O)NC(C)C)oc2ccccc12	0.636	85.1 mL/min/kg	367 mL/min/kg	27.9 µg/mL (≈ 106 µM)	–	–
CC(C)(C)c1nc(Cn2nnc3ccccc3c2=O)no1	0.68	≤ 4.74 mL/min/kg	119 mL/min/kg	34.7 µg/mL (≈ 122 µM)	–	–
Cc1ncc(C(=O)Nc2ncnc3oc(C)c(C)c23)s1	0.422	26.3 mL/min/kg	160 mL/min/kg	53.2 µg/mL (≈ 185 µM)	–	–
COc1cccc(OCCCn2cncc2-c2cc3c(cc2C)n(C)c(=O)n3C)c1	143	38.4 mL/min/kg	352 mL/min/kg	55.4 µg/mL (≈ 136 µM)	–	–
CC(C)CC(=O)Nc1ccc(Cl)c(C#N)c1	–	–	–	24.1 µg/mL (≈ 102 µM)	–	–
CC(C)c1cc(N(C)Cc2nc(C3CC3)n[nH]2)n[nH]1	16.1	≤ 4.74 mL/min/kg	36.7 mL/min/kg	–	–	–
CC(C)(C)C[C@@H]1COCc2nc(OCc3ccccn3)cc(=O)n21	–	–	–	62.1 µg/mL (≈ 189 µM)	–	–
Cc1noc(C)c1CS(=O)(=O)C1CCCc2ccccc21 (configuration not stated)	0.953	192 mL/min/kg	1400 mL/min/kg	–	–	–
CCn1c(=O)n(CC)c2cc(N)ccc21	0.814	≤ 4.74 mL/min/kg	20 mL/min/kg	37.5 µg/mL (≈ 183 µM)	–	–
CN1C(=O)N[C@H](Cc2c[nH]c3c(Cl)cccc23)C1=O	–	8.58 mL/min/kg	77.1 mL/min/kg	–	–	–
CCOCCC(=O)N1CCC2(CCCN(C)CC2)CC1	2.92	≤ 4.74 mL/min/kg	30.6 mL/min/kg	–	–	–
Cc1ccc(CCNc2nc(C)cc(C)n2)cn1	–	12.7 mL/min/kg	192 mL/min/kg	–	–	–
CC(C)(Oc1ccc(-c2cnc(N)c(-c3ccc(Cl)cc3)c2)cc1)C(=O)O	–	–	–	45.4 µg/mL (≈ 119 µM)	0.0007	0.0004
O=C(CCCc1cc(Cl)sc1Cl)N1CCC(O)CC1	0.857	52.4 mL/min/kg	741 mL/min/kg	30.1 µg/mL (≈ 93.4 µM)	–	–

The next lines start with the values.

MDR1-MDCK efflux ratio	intrinsic clearance, human liver microsomes	intrinsic clearance, rat liver microsomes	aqueous solubility	fraction unbound, human plasma	fraction unbound, rat plasma	SMILES
8.78	526 mL/min/kg	727 mL/min/kg	10.1 µg/mL (≈ 20.6 µM)	–	–	CN1CCN(c2ccc(NC(=O)c3ccc(S(=O)(=O)N4CCCc5ccccc54)cc3)cc2)CC1
–	60 mL/min/kg	1840 mL/min/kg	–	–	–	O=C(CNC(=O)c1ccccc1Cl)Nc1cccc2c1CCCC2
11.7	7.8 mL/min/kg	72.1 mL/min/kg	–	–	–	CC(C)(O)CCn1cc2cc(NC(=O)c3cccc(C(F)F)n3)c(OCC3COC3)cc2n1
–	20.6 mL/min/kg	189 mL/min/kg	–	–	–	CCN(CC)C(=O)Oc1cccc2cccnc12
–	6.09 mL/min/kg	38.7 mL/min/kg	–	–	–	COc1ccc2c(c1)CC[C@@H]1[C@@H]2CC[C@]2(C)[C@@H](NCCCCCCN3C(=O)C=CC3=O)CC[C@@H]12
–	–	–	1.88 µg/mL (≈ 5.12 µM)	–	–	CC1=C(C(=O)OCc2ccc3c(c2)OCO3)C(c2ccccc2)NC(=O)N1 (configuration not stated)
131	6.28 mL/min/kg	1140 mL/min/kg	–	–	–	CN1CCC(N(Cc2cccnc2)C(=O)NCCCc2ccccc2)CC1
18.7	–	–	0.8 µg/mL (≈ 1.91 µM)	–	–	O=C(Cn1cccc(C(=O)Nc2cccc(-n3cccn3)c2)c1=O)NC1CCCCC1
14.3	≤ 4.74 mL/min/kg	14.6 mL/min/kg	–	–	–	CCCC1(CNC(=O)Cn2ccc(=O)cc2)CCC1
2.25	56.7 mL/min/kg	442 mL/min/kg	52.2 µg/mL (≈ 155 µM)	–	–	N#Cc1cccc(CN2CCC=C(CNC(=O)c3cccs3)C2)c1
1.66	5.49 mL/min/kg	30.7 mL/min/kg	151 µg/mL (≈ 500 µM)	–	–	CN(C)[C@@H]1CN(C(=O)CCn2cnc3ccccc32)C[C@H]1O
–	198 mL/min/kg	4260 mL/min/kg	–	–	–	O=C(N[C@H](CO)CC1CCCCC1)c1cccc(-c2cnccn2)c1
–	≤ 4.74 mL/min/kg	93.1 mL/min/kg	–	–	–	CCNc1cc2c(nn1)CCN(C(=O)Cn1ccc3ccccc31)C2
0.547	25.3 mL/min/kg	191 mL/min/kg	15.4 µg/mL (≈ 49.4 µM)	–	–	COc1ccc(C(=O)Nc2ccc3oc(C)nc3c2)c(OC)c1
0.762	8.11 mL/min/kg	80.5 mL/min/kg	54.1 µg/mL (≈ 176 µM)	–	–	CC(C)NC(=O)c1cc(-c2ccccc2)n(-c2ccccn2)n1
3.21	≤ 4.74 mL/min/kg	80.5 mL/min/kg	18.6 µg/mL (≈ 72.7 µM)	–	–	c1cc2cc[nH]c2c(CC2CN(C3CCCC3)C2)n1
0.672	10.1 mL/min/kg	369 mL/min/kg	39.8 µg/mL (≈ 125 µM)	–	–	Cn1ncc2c(Oc3cccc(Oc4ccccn4)c3)ncnc21

MDR1-MDCK efflux ratio	intrinsic clearance, human liver microsomes	intrinsic clearance, rat liver microsomes	aqueous solubility	fraction unbound, human plasma	fraction unbound, rat plasma	SMILES
0.985	≤ 4.74 mL/min/kg	≤ 10.7 mL/min/kg	40.2 µg/mL (≈ 139 µM)	–	–	O=C(Nn1cnc2ccccc21)c1cc(Cl)ccc1F
1.69	167 mL/min/kg	283 mL/min/kg	70 µg/mL (≈ 165 µM)	–	–	CCC(=O)N1CCCc2cc(C(O)CN3CCN(c4ccc(OC)cc4)CC3)ccc21 (configuration not stated)
0.796	120 mL/min/kg	967 mL/min/kg	30.5 µg/mL (≈ 76.9 µM)	–	–	O=C(CN1CCCN(c2ccc(C(F)(F)F)cn2)CC1)Nc1cccc(F)c1
–	92.9 mL/min/kg	1240 mL/min/kg	–	–	–	Fc1cccc2c1CN(Cc1c[nH]nc1-c1cccnc1)CC2
39.4	5.73 mL/min/kg	236 mL/min/kg	62.3 µg/mL (≈ 189 µM)	–	–	CC(=O)N1CCC(C(=O)Nc2nccs2)(c2ccccc2)CC1
0.661	≤ 4.74 mL/min/kg	≤ 10.7 mL/min/kg	32.2 µg/mL (≈ 136 µM)	–	–	CS(=O)(=O)Cc1ccn(-c2ccccc2)n1
3.95	≤ 4.74 mL/min/kg	83.4 mL/min/kg	45.1 µg/mL (≈ 152 µM)	–	–	C#CCN1CCC[C@H]1C(=O)Nc1cnn(-c2ncccn2)c1
0.868	–	–	0.2 µg/mL (≈ 0.54 µM)	–	–	O=C(Nc1ccccc1)c1c([O-])n(-c2ccccc2)n[n+]1Cc1ccccc1
2.57	120 mL/min/kg	1410 mL/min/kg	35.7 µg/mL (≈ 111 µM)	–	–	O=C(CSc1ncn[nH]1)N(C1CCCCC1)C1CCCCC1
0.316	–	–	0.7 µg/mL (≈ 1.84 µM)	0.00631	0.0241	CC1(C)Cc2cc(NC(=O)c3cnn4cccnc34)c(OCC3CC3)nc2O1
4.26	–	–	0.85 µg/mL (≈ 2.23 µM)	–	–	O=C1N=C(N2CCN(c3ccccc3)CC2)S/C1=C\c1ccc(O)cc1O
2.39	–	–	–	–	–	CC[C@@H]1CN(c2ccc(C(=O)Nc3cn4cc(C)nc4cn3)c(F)c2)CCN1
12	≤ 4.74 mL/min/kg	≤ 10.7 mL/min/kg	28.4 µg/mL (≈ 73 µM)	–	–	CC1=NN(c2ccc(F)cc2)C(=O)/C1=C(/C)Nc1ccc(S(N)(=O)=O)cc1
–	12.2 mL/min/kg	97.5 mL/min/kg	–	–	–	Cn1nccc1C(=O)C1CCN(C(=O)c2cccs2)CC1
0.882	144 mL/min/kg	1500 mL/min/kg	73.9 µg/mL (≈ 228 µM)	–	–	Cc1cccc(N2CCN(C(=O)c3cncnc3C(C)C)CC2)c1
–	≤ 4.74 mL/min/kg	459 mL/min/kg	–	–	–	CCOc1ccc(NC(=O)c2ccc3c(c2)NC(=O)CO3)cc1
0.723	–	–	0.42 µg/mL (≈ 1.06 µM)	–	–	Cc1nc(-c2ccccc2)c(C(=O)Nc2ccc(Cl)c(C(F)(F)F)c2)s1
